{"source": "patent US20080171783A1", "about": "“COMPOSITIONS AND METHODS FOR TREATING HYPERPROLIFERATIVE DISEASE” (Migenix Inc., priority 2006, published 2008)", "experiment_in_all_cases": "NCI In Vitro Cell Line Screening (SRB)", "key": {"NCI-H460": {"test_system": "NCI-H460", "assay_type": "cell-based, human", "conditions": "NCI-H460, Non-Small Cell Lung Cancer, 48 h"}, "U251": {"test_system": "U251", "assay_type": "cell-based, human", "conditions": "U251, CNS Cancer, 48 h"}, "OVCAR-5": {"test_system": "OVCAR-5", "assay_type": "cell-based, human", "conditions": "OVCAR-5, Ovarian Cancer, 48 h"}, "SW-620": {"test_system": "SW-620", "assay_type": "cell-based", "conditions": "SW-620, Colon Cancer, 48 h"}, "MDA-MB-231/ATCC": {"test_system": "MDA-MB-231/ATCC", "assay_type": "cell-based, human", "conditions": "Breast Cancer, 48 h"}, "A549/ATCC": {"test_system": "A549/ATCC", "assay_type": "cell-based", "conditions": "Non-Small Cell Lung Cancer, 48 h"}, "PC-3": {"test_system": "PC-3", "assay_type": "cell-based, human", "conditions": "PC-3, Prostate Cancer, 48 h"}, "T-47D": {"test_system": "T-47D", "assay_type": "cell-based, human", "conditions": "Breast Cancer, 48 h"}, "ACHN": {"test_system": "ACHN", "assay_type": "cell-based, human", "conditions": "Renal Cancer, 48 h"}, "HCC-2998": {"test_system": "HCC-2998", "assay_type": "cell-based", "conditions": "HCC-2998, Colon Cancer, 48 h"}, "NCI-H322M": {"test_system": "NCI-H322M", "assay_type": "cell-based, human", "conditions": "Non-Small Cell Lung Cancer, 48 h"}, "SK-OV-3": {"test_system": "SK-OV-3", "assay_type": "cell-based, human", "conditions": "SK-OV-3, Ovarian Cancer, 48 h"}, "A498": {"test_system": "A498", "assay_type": "cell-based, human", "conditions": "A498, Renal Cancer, 48 h"}, "SNB-19": {"test_system": "SNB-19", "assay_type": "cell-based, human", "conditions": "SNB-19, CNS Cancer, 48 h"}, "CCRF-CEM": {"test_system": "CCRF-CEM", "assay_type": "cell-based, human", "conditions": "Leukemia, 48 h"}, "KM12": {"test_system": "KM12", "assay_type": "cell-based, human", "conditions": "KM12, Colon Cancer, 48 h"}, "SNB-75": {"test_system": "SNB-75", "assay_type": "cell-based, human", "conditions": "SNB-75, CNS Cancer, 48 h"}, "SF-539": {"test_system": "SF-539", "assay_type": "cell-based, human", "conditions": "SF-539, CNS Cancer, 48 h"}, "HOP-92": {"test_system": "HOP-92", "assay_type": "cell-based, human", "conditions": "HOP-92, Non-Small Cell Lung Cancer, 48 h"}, "HOP-62": {"test_system": "HOP-62", "assay_type": "cell-based, human", "conditions": "HOP-62, Non-Small Cell Lung Cancer, 48 h"}, "HL-60(TB)": {"test_system": "HL-60(TB)", "assay_type": "cell-based, human", "conditions": "Leukemia, 48 h"}, "OVCAR-4": {"test_system": "OVCAR-4", "assay_type": "cell-based, human", "conditions": "OVCAR-4, Ovarian Cancer, 48 h"}, "MDA-MB-435": {"test_system": "MDA-MB-435", "assay_type": "cell-based, human", "conditions": "MDA-MB-435, Breast Cancer, 48 h"}, "SK-MEL-5": {"test_system": "SK-MEL-5", "assay_type": "cell-based, human", "conditions": "SK-MEL-5, Melanoma, 48 h"}, "MCF7": {"test_system": "MCF7", "assay_type": "cell-based, human", "conditions": "MCF7, Breast Cancer, 48 h"}, "NCI/ADR-RES": {"test_system": "NCI/ADR-RES", "assay_type": "cell-based, human", "conditions": "Breast Cancer, 48 h"}, "UACC-62": {"test_system": "UACC-62", "assay_type": "cell-based, human", "conditions": "UACC-62, Melanoma, 48 h"}, "K-562": {"test_system": "K-562", "assay_type": "cell-based", "conditions": "Homo sapiens, K562, K-562, Leukemia, 48 h"}, "[1]": {"conditions": "Homo sapiens, read-out: LC50 (the source's name)"}}}
{"smiles": "Cc1ccc(NC(=O)[C@@H](CCCCN)NC(=O)Nc2ccc3c(c2)Cc2ccccc2-3)cc1", "note": "[Compound 173, (R)-6-AMINO-2-[3-(9H-FLUOREN-2-YL)-UREIDO]-HEXANOIC ACID P-TOLYLAMIDE]", "values": [{"measurement": "GI50", "setting": "NCI-H460; Homo sapiens", "result": 1.86, "unit": "µM"}, {"measurement": "CC50", "setting": "NCI-H460; [1]", "result": 6.33, "unit": "µM"}, {"measurement": "TGI", "setting": "NCI-H460", "result": 3.43, "unit": "µM"}, {"measurement": "GI50", "setting": "U251; Homo sapiens, U-251", "result": 1.49, "unit": "µM"}, {"measurement": "CC50", "setting": "U251; Homo sapiens, U-251, read-out: LC50 (the source's name)", "result": 5.3, "unit": "µM"}, {"measurement": "TGI", "setting": "U251", "result": 2.80, "unit": "µM"}, {"measurement": "GI50", "setting": "OVCAR-5; Homo sapiens", "result": 1.92, "unit": "µM"}, {"measurement": "CC50", "setting": "OVCAR-5; [1]", "result": 6.57, "unit": "µM"}, {"measurement": "TGI", "setting": "OVCAR-5", "result": 3.55, "unit": "µM"}, {"measurement": "GI50", "setting": "SW-620; Homo sapiens", "result": 1.67, "unit": "µM"}, {"measurement": "CC50", "setting": "SW-620; [1]", "result": 6.12, "unit": "µM"}, {"measurement": "TGI", "setting": "SW-620", "result": 3.19, "unit": "µM"}, {"measurement": "TGI", "setting": "MDA-MB-231/ATCC", "result": 2.57, "unit": "µM"}, {"measurement": "GI50", "setting": "MDA-MB-231/ATCC; Homo sapiens", "result": 1.26, "unit": "µM"}, {"measurement": "CC50", "setting": "MDA-MB-231/ATCC; [1]", "result": 5.24, "unit": "µM"}, {"measurement": "GI50", "setting": "A549/ATCC; Homo sapiens", "result": 1.55, "unit": "µM"}, {"measurement": "CC50", "setting": "A549/ATCC; [1]", "result": 7.66, "unit": "µM"}, {"measurement": "TGI", "setting": "A549/ATCC", "result": 3.45, "unit": "µM"}, {"measurement": "GI50", "setting": "PC-3; Homo sapiens", "result": 2.78, "unit": "µM"}, {"measurement": "CC50", "setting": "PC-3; [1]", "result": 44.5, "unit": "µM"}, {"measurement": "TGI", "setting": "PC-3", "result": 11.0, "unit": "µM"}, {"measurement": "TGI", "setting": "T-47D", "result": 3.78, "unit": "µM"}, {"measurement": "GI50", "setting": "T-47D; Homo sapiens, T47D", "result": 1.7, "unit": "µM"}, {"measurement": "CC50", "setting": "T-47D; Homo sapiens, T47D, read-out: LC50 (the source's name)", "result": 8.41, "unit": "µM"}, {"measurement": "GI50", "setting": "ACHN; Homo sapiens", "result": 12.2, "unit": "µM"}, {"measurement": "CC50", "setting": "ACHN; [1]", "result": 54.7, "unit": "µM"}, {"measurement": "TGI", "setting": "ACHN", "result": 25.8, "unit": "µM"}, {"measurement": "TGI", "setting": "HCC-2998", "result": 4.88, "unit": "µM"}, {"measurement": "GI50", "setting": "HCC-2998; Homo sapiens", "result": 2.22, "unit": "µM"}, {"measurement": "LC50 (lethal concentration, 50% cell kill)", "setting": "HCC-2998; Homo sapiens", "result": 17.5, "unit": "µM"}, {"measurement": "GI50", "setting": "NCI-H322M; Homo sapiens", "result": 2.54, "unit": "µM"}, {"measurement": "CC50", "setting": "NCI-H322M; [1]", "result": 39.8, "unit": "µM"}, {"measurement": "TGI", "setting": "NCI-H322M", "result": 12.0, "unit": "µM"}, {"measurement": "GI50", "setting": "SK-OV-3; Homo sapiens", "result": 1.61, "unit": "µM"}, {"measurement": "CC50", "setting": "SK-OV-3; [1]", "result": 5.88, "unit": "µM"}, {"measurement": "TGI", "setting": "SK-OV-3", "result": 3.08, "unit": "µM"}, {"measurement": "TGI", "setting": "A498", "result": 8.26, "unit": "µM"}, {"measurement": "GI50", "setting": "A498; Homo sapiens", "result": 1.99, "unit": "µM"}, {"measurement": "CC50", "setting": "A498; [1]", "result": 37.9, "unit": "µM"}, {"measurement": "GI50", "setting": "SNB-19; Homo sapiens", "result": 1.59, "unit": "µM"}, {"measurement": "TGI", "setting": "SNB-19", "result": 3.21, "unit": "µM"}, {"measurement": "GI50", "setting": "CCRF-CEM; Homo sapiens", "result": 1.97, "unit": "µM"}, {"measurement": "CC50", "setting": "CCRF-CEM; [1]", "result": "> 100", "unit": "µM"}, {"measurement": "TGI", "setting": "CCRF-CEM", "result": 5.15, "unit": "µM"}, {"measurement": "GI50", "setting": "KM12; Homo sapiens", "result": 1.31, "unit": "µM"}, {"measurement": "CC50", "setting": "KM12; [1]", "result": 5.07, "unit": "µM"}, {"measurement": "TGI", "setting": "KM12", "result": 2.57, "unit": "µM"}, {"measurement": "GI50", "setting": "SNB-75; Homo sapiens", "result": 1.61, "unit": "µM"}, {"measurement": "CC50", "setting": "SNB-75; [1]", "result": "> 100", "unit": "µM"}, {"measurement": "TGI", "setting": "SNB-75", "result": 4.65, "unit": "µM"}, {"measurement": "GI50", "setting": "SF-539; Homo sapiens", "result": 1.92, "unit": "µM"}, {"measurement": "CC50", "setting": "SF-539; [1]", "result": 11.9, "unit": "µM"}, {"measurement": "TGI", "setting": "SF-539", "result": 4.48, "unit": "µM"}, {"measurement": "TGI", "setting": "HOP-92", "result": 5.13, "unit": "µM"}, {"measurement": "GI50", "setting": "HOP-92; Homo sapiens", "result": 1.37, "unit": "µM"}, {"measurement": "CC50", "setting": "HOP-92; [1]", "result": 38.5, "unit": "µM"}, {"measurement": "TGI", "setting": "HOP-62", "result": 3.79, "unit": "µM"}, {"measurement": "GI50", "setting": "HOP-62; Homo sapiens", "result": 1.88, "unit": "µM"}, {"measurement": "GI50", "setting": "HL-60(TB); Homo sapiens", "result": 1.77, "unit": "µM"}, {"measurement": "TGI", "setting": "HL-60(TB)", "result": 3.79, "unit": "µM"}, {"measurement": "GI50", "setting": "OVCAR-4; Homo sapiens", "result": 9.3, "unit": "µM"}, {"measurement": "CC50", "setting": "OVCAR-4; [1]", "result": "> 100", "unit": "µM"}, {"measurement": "TGI", "setting": "OVCAR-4", "result": 68.8, "unit": "µM"}, {"measurement": "GI50", "setting": "MDA-MB-435; Homo sapiens", "result": 1.98, "unit": "µM"}, {"measurement": "CC50", "setting": "MDA-MB-435; [1]", "result": 24.3, "unit": "µM"}, {"measurement": "TGI", "setting": "MDA-MB-435", "result": 6.21, "unit": "µM"}, {"measurement": "GI50", "setting": "SK-MEL-5; Homo sapiens", "result": 1.03, "unit": "µM"}, {"measurement": "CC50", "setting": "SK-MEL-5; [1]", "result": 68.3, "unit": "µM"}, {"measurement": "TGI", "setting": "SK-MEL-5", "result": 26.5, "unit": "µM"}, {"measurement": "GI50", "setting": "MCF7; Homo sapiens", "result": 1.45, "unit": "µM"}, {"measurement": "CC50", "setting": "MCF7; [1]", "result": 5.29, "unit": "µM"}, {"measurement": "TGI", "setting": "MCF7", "result": 2.77, "unit": "µM"}, {"measurement": "TGI", "setting": "NCI/ADR-RES", "result": ">100", "unit": "µM"}, {"measurement": "GI50", "setting": "NCI/ADR-RES; Homo sapiens", "result": "> 100", "unit": "µM"}, {"measurement": "CC50", "setting": "NCI/ADR-RES; [1]", "result": "> 100", "unit": "µM"}, {"measurement": "GI50", "setting": "UACC-62; Homo sapiens", "result": 1.15, "unit": "µM"}, {"measurement": "CC50", "setting": "UACC-62; [1]", "result": 6.52, "unit": "µM"}, {"measurement": "TGI", "setting": "UACC-62", "result": 2.74, "unit": "µM"}, {"measurement": "GI50", "setting": "K-562", "result": 1.67, "unit": "µM"}, {"measurement": "CC50", "setting": "K-562; read-out: LC50 (the source's name)", "result": "> 100", "unit": "µM"}]}
